Article PMC6272185 (Molecules, 2015)
In brackets after ≈: the same amount, converted by molar mass. Counter-ions that a name gives are not always drawn. Like-named read-outs stand apart in the source and are kept apart here.

Key:
[1] = Macrophage cytotoxicity, LDH release assay; assay type: cell-based, murine; details: mouse, RAW 264.7 macrophages stimulated with LPS; LPS-stimulated RAW 264.7, LDH release; mean ± SD, n = 3
Method: Cytotoxic effects of chalcone samples on RAW 264.7 cell viability in cultures stimulated with LPS were determined using the LDH (lactate dehydrogenase) release assay as previously described [58]. Cytoplasmic enzyme LDH release into cell culture supernatants was detected using a commercial LDH kit (Doles, GO, Brazil). Cell death was expressed as percentage of LDH release, which was calculated using the following formula: percentage of LDH release = 100 × (test LDH release − spontaneous release)/(maximum release − spontaneous release). The maximum release was determined following dissolution of cell monolayers using 1% (vol/vol) Triton X-100. The spontaneous release was determined in supernatants from cultures incubated in the presence of LPS and DMSO, used as a solvent for chalcone samples.

[2] = tested on: TNF-α production by LPS-stimulated RAW 264.7 macrophages; assay: Inhibition of TNF-α production by LPS-stimulated macrophages (ELISA); assay type: cell-based, murine; details: Mus musculus, read-out: IC50 TNF-α
M. bovis BCG = assay: microbe, parasite or virus in culture; assay type: cell-based, Mycobacterium bovis BCG; details: Mycobacterium tuberculosis variant bovis BCG, BCG, 168 h; for MIC50: read-out: MIC50 M. bovis BCG; for MIC90: read-out: MIC90 M. bovis BCG
[3] = tested on: NO production by LPS-stimulated RAW 264.7 macrophages; assay: Inhibition of NO production by LPS-stimulated macrophages (Griess); assay type: cell-based, murine; details: mean ± SD, n = 3
[4] = tested on: PGE2 production by LPS-stimulated RAW 264.7 macrophages; assay: Inhibition of PGE2 production by LPS-stimulated macrophages (ELISA); assay type: cell-based, murine; details: for IC50: Mus musculus, RAW264.7, 24 h, read-out: IC50 PGE2; for prostaglandin (PGE2) value: only LPS-treated cells 436.0 ± 5.8 pg/mL
Method: (§1) Murine RAW 264.7 macrophage cell line (American Type Culture Collection, Manassas, VA, USA), was cultured in Dulbecco’s modified Eagle’s medium (DMEM-F12) supplemented with 10% Fetal Bovine Serum (FBS) and gentamicin (50 µg/mL) in 5% CO2 atmosphere at 37 °C. For experiments, the cells were seeded in 96-well plates (1 × 10^5 cells/well) and incubated for 24 h at 37 °C. For macrophage stimulation, the cell cultures were treated with LPS (1 µg/mL) and incubated for additional 24 h in the presence or absence of the chalcone samples (samples 1–41) that were used at concentrations of 100, 20, 4 and 0.8 µg/mL. In some experiments, a nitric oxide (NO) inhibitor, L-NMMA (20 μg/mL), was used as a positive control of NO inhibition, and a non-steroidal anti-inflammatory drug indomethacin, known to inhibit production of prostaglandins, was used as a positive control of PGE2 inhibition.
(§2) The frozen culture supernatants samples were thawed and immediately analyzed using commercially available enzyme-linked immunosorbent assay (ELISA) kits to measure TNF-α, IL-1β (BD Biosciences) and PGE2 (R&D Systems, Minneapolis, MN, USA), according to the manufacturer’s instructions. Standard curves for each mediator were generated using reference cytokine concentrations supplied by the manufacturer. Nitric oxide (NO) generation was assessed by the Griess method to measure nitrites, which are stable breakdown NO products.

[5] = tested on: IL-1β production by LPS-stimulated RAW 264.7 macrophages; assay: Inhibition of IL-1β production by LPS-stimulated macrophages (ELISA); assay type: cell-based, murine; details: Mus musculus, RAW264.7, 24 h, read-out: IC50 IL-1β
Method: as §1, §2

M. tuberculosis H37Rv = assay: microbe, parasite or virus in culture; assay type: cell-based, Mycobacterium tuberculosis; details: Mycobacterium tuberculosis
[6] = RAW264.7, LPS (1 µg/mL)-stimulated RAW 264.7, 24 h, mean ± SD, n = 3
[7] = Mus musculus, RAW264.7, 24 h, LPS (1 µg/mL)-stimulated RAW 264.7, 24 h, read-out: IC50 NO
[8] = LPS (1 µg/mL)-stimulated RAW 264.7, 24 h, read-out: IC50 NO
[9] = Mus musculus, RAW264.7, 24 h, read-out: IC50 NO, LPS (1 µg/mL)-stimulated RAW 264.7, 24 h
[10] = H37RV, 120 h, read-out: MIC50 M. tuberculosis H37Rv

Compound: O=C(/C=C/c1ccccc1)c1ccccc1 [Chalcone 1, 1,3-diphenyl-2-propenone, reference compound]
- IC50 [1]: 177 ± 9.5 µM
- IC50 [2, 6]: > 480 µM
- MIC50 (M. bovis BCG): 137 ± 4.7 µM (≈ 28.6 µg/mL)
- MIC90 (M. bovis BCG): 383 ± 9.1 µM (≈ 79.8 µg/mL)
- IC50 [3, 7]: 41.6 ± 2 µM

Compound: COc1ccc(/C=C/C(=O)c2ccc(Br)cc2)cc1OC [Chalcone 14]
- IC50 [1]: > 288 µM
- IC50 [2, 6]: > 288 µM
- MIC50 (M. bovis BCG): > 288 µM
- MIC90 (M. bovis BCG): > 288 µM
- IC50 [3, 7]: 58.9 ± 6.8 µM

Compound: COc1ccc(/C=C/C(=O)c2ccccc2Cl)cc1OC [Chalcone 36]
- IC50 [1]: > 330 µM
- IC50 [2, 6]: > 330 µM
- MIC50 (M. bovis BCG): 270 ± 3.9 µM (≈ 81.6 µg/mL)
- MIC90 (M. bovis BCG): > 330 µM
- IC50 [3, 7]: 188 ± 4.1 µM

Compound: COc1ccc(C(=O)/C=C/c2ccc3c(c2)OCO3)cc1 [Chalcone 28]
- IC50 [4]: 22.1 ± 0.63 µM
- IC50 [1]: > 354 µM
- IC50 [2, 6]: > 354 µM
- MIC50 (M. bovis BCG): > 354 µM
- MIC90 (M. bovis BCG): > 354 µM
- IC50 [3, 8]: 14.9 ± 4.1 µM
- IC50 [3, 9]: < 21 µM
- IC50 [5]: > 354 µM

Compound: COc1ccc(/C=C/C(=O)c2ccc(C)cc2)cc1OC [Chalcone 22]
- IC50 [1]: > 354 µM
- IC50 [2, 6]: > 354 µM
- MIC50 (M. bovis BCG): > 354 µM
- MIC90 (M. bovis BCG): > 354 µM
- IC50 [3, 7]: > 354 µM

Compound: Cc1ccc(C(=O)/C=C/c2ccc([N+](=O)[O-])cc2)cc1 [Chalcone 39]
- IC50 [1]: 329 ± 3.9 µM
- IC50 [2, 6]: > 373 µM
- MIC50 (M. bovis BCG): 28.1 ± 5.4 µM (≈ 7.51 µg/mL)
- MIC90 (M. bovis BCG): 344 ± 6.3 µM (≈ 92 µg/mL)
- IC50 [3, 7]: 114 ± 4.8 µM
- MIC90 (M. tuberculosis H37Rv; H37RV, 120 h): > 373 µM
- MIC50 (M. tuberculosis H37Rv; [10]): > 373 µM

Compound: COc1ccc(C(=O)/C=C/c2ccc(N(C)C)cc2)cc1 [Chalcone 27]
- IC50 [1]: 226 ± 3.5 µM
- IC50 [2, 6]: > 355 µM
- MIC50 (M. bovis BCG): 309 ± 5 µM (≈ 86.9 µg/mL)
- MIC90 (M. bovis BCG): > 355 µM
- IC50 [3, 7]: 44.6 ± 5.2 µM

Compound: Cc1ccc(C(=O)/C=C/c2ccc(F)cc2)cc1 [Chalcone 17]
- IC50 [4]: > 417 µM
- IC50 [1]: 290 ± 4.3 µM
- IC50 [2, 6]: > 416 µM
- MIC50 (M. bovis BCG): 61.5 ± 7.6 µM (≈ 14.8 µg/mL)
- MIC90 (M. bovis BCG): 388 ± 7.3 µM (≈ 93.3 µg/mL)
- IC50 [3, 7]: 30.8 ± 4.5 µM
- IC50 [5]: > 416 µM
- MIC90 (M. tuberculosis H37Rv; H37RV, 120 h): > 416 µM
- MIC50 (M. tuberculosis H37Rv; [10]): 63.8 ± 6.2 µM (≈ 15.3 µg/mL)
- MIC50 (M. tuberculosis H37Rv; Table 5, same values as M. tuberculosis H37Rv in Table 3, read-out: MIC50): 63.8 ± 6.2 µM (≈ 15.3 µg/mL)

Compound: Cc1ccc(C(=O)/C=C/c2ccccc2Cl)cc1 [Chalcone 23]
- IC50 [1]: > 390 µM
- IC50 [2, 6]: > 390 µM
- MIC50 (M. bovis BCG): > 390 µM
- MIC90 (M. bovis BCG): > 390 µM
- IC50 [3, 7]: > 390 µM

Compound: O=C(/C=C/c1ccc2c(c1)OCO2)c1ccccc1Cl [Chalcone 35]
- IC50 [1]: > 349 µM
- IC50 [2, 6]: > 349 µM
- MIC50 (M. bovis BCG): > 349 µM
- MIC90 (M. bovis BCG): > 349 µM
- IC50 [3, 7]: 160 ± 4.7 µM

Compound: COc1ccc(/C=C/C(=O)c2ccc(Br)cc2)cc1 [Chalcone 13]
- IC50 [1]: > 315 µM
- IC50 [2, 6]: > 315 µM
- MIC50 (M. bovis BCG): 221 ± 3.6 µM (≈ 70 µg/mL)
- MIC90 (M. bovis BCG): > 315 µM
- IC50 [3, 7]: 52.9 ± 3.6 µM

Compound: O=C(/C=C/c1ccccn1)c1ccccc1 [Chalcone 7]
- IC50 [1]: > 478 µM
- IC50 [2, 6]: > 478 µM
- MIC50 (M. bovis BCG): 35.8 ± 7.2 µM (≈ 7.49 µg/mL)
- MIC90 (M. bovis BCG): 441 ± 9.5 µM (≈ 92.2 µg/mL)
- IC50 [3, 7]: > 478 µM
- MIC90 (M. tuberculosis H37Rv; H37RV, 120 h): > 478 µM
- MIC50 (M. tuberculosis H37Rv; [10]): > 478 µM

Compound: COc1ccc(/C=C/C(=O)c2ccccc2)cc1 [Chalcone 6]
- IC50 [1]: > 420 µM
- IC50 ([2]; RAW264.7, 24 h): > 420 µM
- IC50 [3, 9]: > 420 µM

Compound: COc1ccc(/C=C/C(=O)c2ccccc2Cl)cc1 [Chalcone 34]
- IC50 [1]: > 367 µM
- IC50 [2, 6]: > 367 µM
- MIC50 (M. bovis BCG): > 367 µM
- MIC90 (M. bovis BCG): > 367 µM
- IC50 [3, 7]: > 367 µM

Compound: O=C(/C=C/c1ccc([N+](=O)[O-])cc1)c1ccc(Br)cc1 [Chalcone 38]
- IC50 [1]: > 301 µM
- IC50 [2, 6]: > 301 µM
- MIC50 (M. bovis BCG): 97.4 ± 4.2 µM (≈ 32.4 µg/mL)
- MIC90 (M. bovis BCG): 221 ± 5.6 µM (≈ 73.3 µg/mL)
- IC50 [3, 7]: > 301 µM

Compound: Cc1ccc(C(=O)/C=C/c2ccc3c(c2)OCO3)cc1 [Chalcone 20]
- IC50 [4]: 147.4 ± 1.2 µM
- IC50 [1]: > 376 µM
- IC50 [2, 6]: > 376 µM
- MIC50 (M. bovis BCG): > 376 µM
- MIC90 (M. bovis BCG): > 376 µM
- IC50 [3, 7]: 30.1 ± 1.2 µM
- IC50 [5]: > 376 µM

Compound: Cc1ccc(C(=O)/C=C/c2ccccc2)cc1 [Chalcone 16]
- IC50 [1]: > 450 µM
- IC50 [2, 6]: > 450 µM
- MIC50 (M. bovis BCG): > 450 µM
- MIC90 (M. bovis BCG): > 450 µM
- IC50 [3, 7]: > 450 µM

Compound: COc1ccc(C(=O)/C=C/c2ccc(Cl)cc2)cc1 [Chalcone 26]
- IC50 [4]: 57.7 ± 1.9 µM
- IC50 [1]: > 367 µM
- IC50 [2, 6]: > 367 µM
- MIC50 (M. bovis BCG): 91.2 ± 5 µM (≈ 24.9 µg/mL)
- MIC90 (M. bovis BCG): 287 ± 7.8 µM (≈ 78.2 µg/mL)
- IC50 [3, 7]: 25.3 ± 3.9 µM
- IC50 [5]: > 367 µM

Compound: O=C(/C=C/c1ccc2c(c1)OCO2)c1ccc(Br)cc1 [Chalcone 12]
- IC50 [4]: 50.3 ± 0.3 µM
- IC50 [1]: > 302 µM
- IC50 [2, 6]: > 302 µM
- MIC50 (M. bovis BCG): 84.9 ± 4.7 µM (≈ 28.1 µg/mL)
- MIC90 (M. bovis BCG): 229.6 ± 2.2 µM (≈ 76 µg/mL)
- IC50 [3, 8]: 19.6 ± 3.3 µM
- IC50 [3, 9]: < 21 µM
- IC50 [5]: > 302 µM

Compound: O=C(/C=C/c1ccc(F)cc1)c1ccccc1Cl [Chalcone 32]
- IC50 [1]: > 384 µM
- IC50 [2, 6]: > 384 µM
- MIC50 (M. bovis BCG): > 384 µM
- MIC90 (M. bovis BCG): > 384 µM
- IC50 [3, 7]: > 384 µM

Compound: [H]/N=C(/NC)NCCC[C@H](N)C(=O)O [L-NMMA, N^G-Monomethyl-L-arginine acetate salt, reference compound]
- IC50 [3, 7]: 78.3 ± 6.5 µM

Compound: COc1ccc2c(c1)c(CC(=O)O)c(C)n2C(=O)c1ccc(Cl)cc1 [indomethacin, reference compound]
- prostaglandin (PGE2) value ([4]; 0.0004 µg/mL): 340.7 ± 1.1 pg/mL
- prostaglandin (PGE2) value ([4]; 0.004 µg/mL): 271.6 ± 2.6 pg/mL
- prostaglandin (PGE2) value ([4]; 0.04 µg/mL): 171.8 ± 1.2 pg/mL
- prostaglandin (PGE2) value ([4]; 0.2 µg/mL): 11.8 ± 1.9 pg/mL

Compound: Cc1ccc(C(=O)/C=C/c2ccc(Cl)cc2)cc1 [Chalcone 18]
- IC50 [1]: 304 ± 4.2 µM
- IC50 [2, 6]: > 390 µM
- MIC50 (M. bovis BCG): 71.3 ± 4.8 µM (≈ 18.3 µg/mL)
- MIC90 (M. bovis BCG): 323 ± 7.1 µM (≈ 83 µg/mL)
- IC50 [3, 7]: 150 ± 3.8 µM

Compound: O=C(/C=C/c1ccc([N+](=O)[O-])cc1)c1ccccc1 [Chalcone 37]
- IC50 [4]: 322 ± 3.7 µM
- IC50 [1]: > 395 µM
- IC50 [2, 6]: > 395 µM
- MIC50 (M. bovis BCG): > 395 µM
- MIC90 (M. bovis BCG): > 395 µM
- IC50 [3, 7]: 58.6 ± 4.5 µM
- IC50 [5]: > 395 µM
